What was measured:
[1] = tested on: MCF7; assay: NCI in vitro cytotoxicity (SRB); assay type: cell-based; conditions: Homo sapiens
[2] = tested on: A498; assay: NCI in vitro cytotoxicity (SRB); assay type: cell-based; conditions: Homo sapiens; Renal A498; 48 h exposure
[3] = tested on: IGROV1; assay: NCI in vitro cytotoxicity (SRB); assay type: cell-based; conditions: Homo sapiens, IGROV-1
[4] = tested on: SNB-75; assay: NCI in vitro cytotoxicity (SRB); assay type: cell-based; conditions: Homo sapiens; CNS SNB-75; 48 h exposure
[5] = tested on: SN12C; assay: NCI in vitro cytotoxicity (SRB); assay type: cell-based; conditions: Homo sapiens; Renal SN12C; 48 h exposure
[6] = tested on: K-562; assay: NCI in vitro cytotoxicity (SRB); assay type: cell-based; conditions: Homo sapiens, K562; Leukemia K-562; 48 h exposure
[7] = tested on: HOP-62; assay: NCI in vitro cytotoxicity (SRB); assay type: cell-based; conditions: Homo sapiens
[8] = tested on: CNS panel; assay: NCI screen, panel average; assay type: cell-based, human; conditions: for Log10 GI50 (concentration in mol/L): CNS, average of six to eight cell lines; for LC50: Homo sapiens, read-out: Log10 LC50 (concentration in mol/L causing 50% lethality) (converted)
[9] = tested on: M14; assay: NCI in vitro cytotoxicity (SRB); assay type: cell-based; conditions: Homo sapiens; Melanoma M14; 48 h exposure
[10] = tested on: sixty human tumour cell lines; conditions: mean over human tumour cell lines
Description: For each compound, dose response curves for each cell line were measured at a minimum of five concentrations at 10 fold dilutions. A protocol of 48 h continuous drug exposure was used and a sulforhodamine B (SRB) protein assay was used to estimate cell viability or growth. The concentration causing 50% cell growth inhibition (G150), total cell growth inhibition (TGI 0% growth) and 50% cell death (LC50, −50% growth) compared with the control was calculated.

[11] = tested on: calf thymus DNA (CT-DNA); assay: Thermal denaturation studies with duplex-form calf thymus DNA; assay type: binding; conditions: [PBD]:[DNA] 1:5, CT-DNA 100 μM, ligand 20 μM, pH 7.00; for ΔTm after incubation at 37° C. for 0 h: 0 h at 37° C.; for ΔTm after incubation at 37° C. for 18 h: 18 h at 37° C.
Description: Compounds have been subjected to thermal denaturation studies with duplex-form calf thymus DNA (CT-DNA) using an modification of a reported procedure (Newman, M. S. Carcinog-compr. Surv. 1976, 1, 203; (b) Hecht, S. S.; Loy, M.; Hoffman, Carcinog-compr. Surv. 1976, 1, 325). Working solutions in aqueous buffer (10 mM NaH2PO4/Na2HPO4, 1 mM Na2EDTA, pH 7.00+0.01) containing CT-DNA (100 μm in phosphate) and the PBD (20 μm) have been prepared by addition of concentrated PBD solutions in DMSO to obtain a fixed [PBD]/[DNA] molar ratio of 1:5. The DNA−PBD solutions have been incubated at 37° C. for 0 and 18 h prior to analysis. Samples have been monitored at 260 nm using a Beckman DU-800 spectrophotometer fitted with high performance temperature controller, and heated at 1° C. min^−1
in the 40-110° C. range. DNA helix[…]coil transition temperatures (Tm) have been obtained from the maxima in the d(A260)/dT derivative plots. Drug-induced alterations in DNA melting behavior are given by: ΔTm=Tm(DNA+PBD)−Tm (DNA alone), where the Tm value for the PBD-free CT-DNA is 69.1±0.01.

[12] = tested on: RXF 393; assay: NCI in vitro cytotoxicity (SRB); assay type: cell-based; conditions: Homo sapiens; Renal RXF 393; 48 h exposure
[13] = tested on: LOX IMVI; assay: NCI in vitro cytotoxicity (SRB); assay type: cell-based; conditions: Homo sapiens
[14] = tested on: COLO 205; assay: NCI in vitro cytotoxicity (SRB); assay type: cell-based; conditions: Homo sapiens; Colon COLO 205; 48 h exposure
[15] = tested on: PC-3; assay: NCI in vitro cytotoxicity (SRB); assay type: cell-based; conditions: Homo sapiens; Prostate PC-3; 48 h exposure
[16] = tested on: UO-31; assay: NCI in vitro cytotoxicity (SRB); assay type: cell-based; conditions: Homo sapiens; Renal UO-31; 48 h exposure
[17] = tested on: CAKI-1; assay: NCI in vitro cytotoxicity (SRB); assay type: cell-based; conditions: Homo sapiens; Renal CAKI-1; 48 h exposure
[18] = tested on: HT29; assay: NCI in vitro cytotoxicity (SRB); assay type: cell-based; conditions: Homo sapiens, HT-29; Colon HT29; 48 h exposure
[19] = tested on: MOLT-4; assay: NCI in vitro cytotoxicity (SRB); assay type: cell-based; conditions: Homo sapiens
[20] = tested on: UACC-62; assay: NCI in vitro cytotoxicity (SRB); assay type: cell-based; conditions: Homo sapiens; Melanoma UACC-62; 48 h exposure
[21] = tested on: DU-145; assay: NCI in vitro cytotoxicity (SRB); assay type: cell-based; conditions: Homo sapiens
[22] = tested on: RPMI-8226; assay: NCI in vitro cytotoxicity (SRB); assay type: cell-based; conditions: Homo sapiens; Leukemia RPMI-8226; 48 h exposure
[23] = tested on: SK-MEL-5; assay: NCI in vitro cytotoxicity (SRB); assay type: cell-based; conditions: Homo sapiens; Melanoma SK-MEL-5; 48 h exposure
[24] = tested on: Breast panel; assay: NCI screen, panel average; assay type: cell-based, human; conditions: for Log10 GI50 (concentration in mol/L): Breast, average of six to eight cell lines; for LC50: Homo sapiens, read-out: Log10 LC50 (concentration in mol/L causing 50% lethality) (converted)
[25] = tested on: SNB-19; assay: NCI in vitro cytotoxicity (SRB); assay type: cell-based; conditions: Homo sapiens; CNS SNB-19; 48 h exposure
[26] = tested on: A549/ATCC; assay: NCI in vitro cytotoxicity (SRB); assay type: cell-based; conditions: Homo sapiens; Non-smallcell lung A549/ATCC; 48 h exposure
[27] = tested on: HCT-15; assay: NCI in vitro cytotoxicity (SRB); assay type: cell-based; conditions: Homo sapiens; Colon HCT-15; 48 h exposure
[28] = tested on: HCT-116; assay: NCI in vitro cytotoxicity (SRB); assay type: cell-based; conditions: Homo sapiens
[29] = tested on: SF-268; assay: NCI in vitro cytotoxicity (SRB); assay type: cell-based; conditions: Homo sapiens
[30] = tested on: CCRF-CEM; assay: NCI in vitro cytotoxicity (SRB); assay type: cell-based; conditions: Homo sapiens; Leukemia CCRF-CEM; 48 h exposure
[31] = tested on: SF-539; assay: NCI in vitro cytotoxicity (SRB); assay type: cell-based; conditions: Homo sapiens; CNS SF-539; 48 h exposure
[32] = Non-smallcell lung HOP-62, 48 h exposure
[33] = Melanoma LOX IMVI, 48 h exposure

SMILES: COc1cc2c(cc1OCCCN1CCN(C(=S)SCCC(C#N)(c3ccccc3)c3ccccc3)CC1)N=C[C@@H]1CCCN1C2=O [Compound 12b, 3-cyano-3,3-diphenylpropyl 4-(3-[(11aS)-7-(methyloxy)-5-oxo-2,3,5,11a-tetrahydro-1H-benzo[e]pyrrolo[1,2-a][1,4]diazepin-8-yl]oxypropyl)hexahydro-1-pyrazinecarbodithioate]
- GI50 ([1]; MCF7, breast MCF-7): 330 nM
- GI50 ([1]; Breast MCF7, 48 h exposure): 330 nM
- GI50 [2]: 910 nM
- GI50 ([3]; Ovarian IGROV1, 48 h exposure): 300 nM
- GI50 ([3]; ovarian IGROV1): 300 nM
- GI50 [4]: 1260 nM
- GI50 [5]: 640 nM
- GI50 [6]: 260 nM
- GI50 [7, 32]: 120 nM
- GI50 ([7]; non-small cell lung HOP-62): 210 nM
- Log10 GI50 (concentration in mol/L) [8]: −6.12 mol/L
- LC50 [8]: 4470 nM
- GI50 [9]: 1170 nM
- Log10GI50 mean graph midpoint (MG_MID) [10]: −6.15
- Log10LC50 mean graph midpoint (MG_MID) [10]: −4.96
- Log10TGI mean graph midpoint (MG_MID) [10]: −5.67
- ΔTm after incubation at 37° C. for 0 h [11]: 2.0 °C
- ΔTm after incubation at 37° C. for 18 h [11]: 4.0 °C
- GI50 [12]: 190 nM
- GI50 [13, 33]: 600 nM
- GI50 ([13]; melanoma LOX IMVI): 600 nM
- GI50 [14]: 1300 nM
- GI50 [15]: 340 nM
- GI50 [16]: 1100 nM
- GI50 [17]: 300 nM
- GI50 [18]: 870 nM
- GI50 ([19]; Leukemia MOLT-4, 48 h exposure): 220 nM
- GI50 ([19]; leukemia MOLT-4): 220 nM
- GI50 [20]: 1060 nM
- GI50 ([21]; Prostate DU-145, 48 h exposure): 260 nM
- GI50 ([21]; prostate DU-145): 260 nM
- GI50 [22]: 220 nM
- GI50 [23]: 1180 nM
- Log10 GI50 (concentration in mol/L) [24]: −6.13 mol/L
- LC50 [24]: 37200 nM
- GI50 [25]: 1230 nM
- GI50 [26]: 1220 nM
- GI50 [27]: 1810 nM
- GI50 ([28]; Colon HCT-116, 48 h exposure): 380 nM
- GI50 ([28]; colon cancer HCT-116): 380 nM
- GI50 ([29]; SF-268, CNS SF268): 280 nM
- GI50 ([29]; CNS SF-268, 48 h exposure): 280 nM
- GI50 [30]: 230 nM
- GI50 [31]: 1440 nM

SMILES: COc1cc2c(cc1OCCCCN1CCN(C(=S)SCCC(C#N)(c3ccccc3)c3ccccc3)CC1)N=C[C@@H]1CCCN1C2=O [Compound 12c, 3-cyano-3,3-diphenylpropyl 4-(4-[(11aS)-7-(methyloxy)-5-oxo-2,3,5,11a-tetrahydro-1H-benzo[e]pyrrolo[1,2-a][1,4]diazepin-8-yl]oxybutyl)hexahydro-1-pyrazinecarbodithioate]
- GI50 ([1]; Breast MCF7, 48 h exposure): 430 nM
- GI50 [2]: 1190 nM
- GI50 ([3]; Ovarian IGROV1, 48 h exposure): 420 nM
- GI50 [4]: 1640 nM
- GI50 [5]: 1160 nM
- GI50 [6]: 3290 nM
- GI50 [7, 32]: 710 nM
- Log10 GI50 (concentration in mol/L) [8]: −5.84 mol/L
- LC50 [8]: 7590 nM
- GI50 [9]: 1250 nM
- Log10GI50 mean graph midpoint (MG_MID) [10]: −5.98
- Log10LC50 mean graph midpoint (MG_MID) [10]: −4.48
- Log10TGI mean graph midpoint (MG_MID) [10]: −5.28
- ΔTm after incubation at 37° C. for 0 h [11]: 2.0 °C
- ΔTm after incubation at 37° C. for 18 h [11]: 2.1 °C
- GI50 [12]: 410 nM
- GI50 [13, 33]: 690 nM
- GI50 [14]: 1400 nM
- GI50 [15]: 690 nM
- GI50 [16]: 590 nM
- GI50 [17]: 590 nM
- GI50 [18]: 1130 nM
- GI50 ([19]; Leukemia MOLT-4, 48 h exposure): 350 nM
- GI50 [20]: 1320 nM
- GI50 ([21]; Prostate DU-145, 48 h exposure): 1470 nM
- GI50 [22]: 490 nM
- GI50 [23]: 1110 nM
- Log10 GI50 (concentration in mol/L) [24]: −6.02 mol/L
- LC50 [24]: 66100 nM
- GI50 [25]: 1670 nM
- GI50 [26]: 1610 nM
- GI50 [27]: 1410 nM
- GI50 ([28]; Colon HCT-116, 48 h exposure): 540 nM
- GI50 ([29]; CNS SF-268, 48 h exposure): 1230 nM
- GI50 [30]: 530 nM
- GI50 [31]: 1690 nM

From patent US8592407B2, “Pyrrolo[2,1-c][1,4] benzodiazepine derivatives with dithiocarbamate side chains and process for the preparation thereof” (Council of Scientific & Industrial Research, priority 2008, dated 2013)
